Measurements from the NIST ThermoML archive (doi:10.1007/s10765-013-1526-8).

Legend:
[1] = xn = mol fraction of the nth substance listed; conditions: 101 kPa, Liquid; for speed of sound: Sing-around technique in a fixed-path interferometer
[2] = refractive index (Na D-line) (dimensionless); xn = mol fraction of the nth substance listed; conditions: 101 kPa, Liquid

Brc1ccccc1 [bromobenzene] + CCCCC(CC)CO
Conditions | mass density, [1] [kg/m3] | refractive index, [2] | speed of sound, [1] [m/s] | viscosity, [1] [mPa·s]
298.15 K, x1 = 0.0623 | 846.06 | 1.4348 | 1305 | 7.004
298.15 K, x1 = 0.1321 | 869.44 | 1.4416 | 1295 | 5.672
298.15 K, x1 = 0.202 | 895.09 | 1.4486 | 1290 | 4.56
298.15 K, x1 = 0.2694 | 924.23 | 1.4554 | 1285 | 3.717
298.15 K, x1 = 0.336 | 956.85 | 1.4625 | 1281 | 3.044
298.15 K, x1 = 0.3981 | 991.69 | 1.4693 | 1279 | 2.553
298.15 K, x1 = 0.4625 | 1031.18 | 1.4767 | 1277 | 2.187
298.15 K, x1 = 0.5272 | 1074.92 | 1.4844 | 1273 | 1.923
298.15 K, x1 = 0.5918 | 1122.9 | 1.4925 | 1268 | 1.728
298.15 K, x1 = 0.6627 | 1179.58 | 1.502 | 1259 | 1.594
298.15 K, x1 = 0.7278 | 1235.29 | 1.5112 | 1248 | 1.49
298.15 K, x1 = 0.7941 | 1295.12 | 1.5212 | 1236 | 1.444
298.15 K, x1 = 0.8633 | 1359.7 | 1.5325 | 1216 | 1.359
298.15 K, x1 = 0.9266 | 1418.41 | 1.5433 | 1194 | 1.266
298.15 K, x1 = 1 | 1488.12 | 1.557 | 1153 | 1.065
303.15 K, x1 = 0.0623 | 842.3 | 1.4332 | 1291 | 5.889
303.15 K, x1 = 0.1321 | 864.98 | 1.4403 | 1282 | 4.765
303.15 K, x1 = 0.202 | 891.19 | 1.4472 | 1276 | 3.838
303.15 K, x1 = 0.2694 | 920.76 | 1.4542 | 1272 | 3.126
303.15 K, x1 = 0.336 | 952.81 | 1.4611 | 1270 | 2.577
303.15 K, x1 = 0.3981 | 986.69 | 1.4678 | 1268 | 2.197
303.15 K, x1 = 0.4625 | 1026.09 | 1.475 | 1266 | 1.907
303.15 K, x1 = 0.5272 | 1069.83 | 1.4826 | 1264 | 1.702
303.15 K, x1 = 0.5918 | 1117.3 | 1.4906 | 1261 | 1.548
303.15 K, x1 = 0.6627 | 1173.8 | 1.5 | 1254 | 1.458
303.15 K, x1 = 0.7278 | 1229.12 | 1.5092 | 1241 | 1.39
303.15 K, x1 = 0.7941 | 1288.41 | 1.5191 | 1226 | 1.355
303.15 K, x1 = 0.8633 | 1351.6 | 1.5303 | 1206 | 1.297
303.15 K, x1 = 0.9266 | 1410.1 | 1.5412 | 1183 | 1.205
303.15 K, x1 = 1 | 1481.4 | 1.555 | 1138 | 1.005
308.15 K, x1 = 0.0623 | 837.02 | 1.4306 | 1279 | 5.101
308.15 K, x1 = 0.1321 | 859.74 | 1.4376 | 1273 | 4.181
308.15 K, x1 = 0.202 | 886.06 | 1.4447 | 1267 | 3.414
308.15 K, x1 = 0.2694 | 915.17 | 1.4517 | 1263 | 2.814
308.15 K, x1 = 0.336 | 947.49 | 1.4587 | 1259 | 2.35
308.15 K, x1 = 0.3981 | 981.89 | 1.4655 | 1254 | 2.004
308.15 K, x1 = 0.4625 | 1021.03 | 1.4728 | 1251 | 1.722
308.15 K, x1 = 0.5272 | 1064.57 | 1.4805 | 1247 | 1.522
308.15 K, x1 = 0.5918 | 1111.88 | 1.4886 | 1241 | 1.37
308.15 K, x1 = 0.6627 | 1168.02 | 1.4981 | 1232 | 1.265
308.15 K, x1 = 0.7278 | 1222.21 | 1.5072 | 1218 | 1.192
308.15 K, x1 = 0.7941 | 1279.2 | 1.5171 | 1203 | 1.149
308.15 K, x1 = 0.8633 | 1339.82 | 1.528 | 1183 | 1.099
308.15 K, x1 = 0.9266 | 1398.8 | 1.5388 | 1161 | 1.052
308.15 K, x1 = 1 | 1474.58 | 1.553 | 1122 | 0.972
